Assay results reported in patent publication US20260146044A1, “AROMATIC COMPOUND, PHARMACEUTICAL COMPOSITION CONTAINING SAME, AND USE THEREOF” (Increland, priority 2023, published 2026).
pIC50: −log10 of the molar value.

Experiments:
Type in all cases: cell-based
IRAK4 protein = molecular target: T1, IRAK4 protein (Homo sapiens, UniProt Q9NWZ3); assay: IRAK4 protein degradation in THP1 cells (Western blot); details: 24 h
T1 construct: Effects of Compounds on IRAK4 Protein Degradation in THP1 Cells; endogenous in cells; host or cells: THP-1 cells
T1 sequence (Q9NWZ3 1-460): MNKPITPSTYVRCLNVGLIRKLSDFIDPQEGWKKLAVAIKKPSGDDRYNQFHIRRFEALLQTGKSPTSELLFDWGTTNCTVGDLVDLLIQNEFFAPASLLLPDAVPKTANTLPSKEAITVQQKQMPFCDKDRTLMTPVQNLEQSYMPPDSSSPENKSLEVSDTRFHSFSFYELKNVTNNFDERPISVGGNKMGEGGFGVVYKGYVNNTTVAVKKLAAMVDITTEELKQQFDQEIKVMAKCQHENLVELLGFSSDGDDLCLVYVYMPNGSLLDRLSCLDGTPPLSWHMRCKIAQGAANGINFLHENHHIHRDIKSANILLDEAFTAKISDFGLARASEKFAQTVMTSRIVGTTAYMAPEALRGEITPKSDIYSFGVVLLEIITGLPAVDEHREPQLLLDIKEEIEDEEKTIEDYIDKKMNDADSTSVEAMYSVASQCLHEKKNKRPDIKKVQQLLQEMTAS
Experimental: THP-1 cells were inoculated into a 96-well cell culture plate, with 5×10^4 cells and 100 μL of a culture medium per well. The cell culture plate was cultured in an incubator with 5% CO2 at 37° C. overnight. 100 nl of a well-prepared compound stock solution and a compound-free DMSO stock solution were respectively added to cells per well. The cell culture plate was incubated in an incubator with 5% CO2 at 37° C. for 24 h. One protease inhibitor tablet and one phosphatase inhibitor tablet were added to 20 mL of a cell lysis buffer, and they were gently mixed until complete dissolution. DTT at a final concentration of 200 mM was added to a 4× sample preparation buffer to prepare a 4× sample preparation working solution. 20× electrophoretic buffer was diluted to 1× with ultrapure water. 20× transfer buffer was diluted to 1× with ultrapure water, and 20% methanol was added. […] IRAK4 protein primary antibody working solution: 20 μl of IRAK4 antibody added to 20 mL of a blocking solution; β-Actin primary antibody working solution: 2 μl of beta-actin (13E5) Rabbit mAb antibody added to 20 mL of a blocking solution. IRAK4 protein secondary antibody working solution: Donkey Anti-Goat IgG H&L (HRP) diluted 1/5,000 in a blocking solution; 3-Actin secondary antibody working solution: Anti-rabbit IgG, RP-linked antibody diluted 1/10,000 in a blocking solution. The cell culture plate was centrifuged at 3,000 rpm for 3 min, and most of the culture medium was carefully pipetted. The cell plate was inverted, and centrifuged at 300 rpm for 30 s. 45 μL of a lysis buffer was added to each well. The mixture was shaken at 300 rpm for 30 s, allowed to stand on ice for 30 min, and pipetted 30 times at 20 min. 6 μL of 4× sample preparation working solution was added to 18 μL of protein supernatant for sample preparation, and the mixture was heated at 70° C. for 10 min. Remaining protein samples were stored at −80° C. In the precast gel, 8 μl of sample was loaded into each well for electrophoresis at a constant voltage of 120 V for about 60 min, transferred using a PVDF membrane at a constant current of 300 mA for 1 h, then blocked with a blocking solution at room temperature for 1 h, and incubated in a primary antibody working solution at 4° C. overnight. The membrane was washed with 1×TBST buffer for 3×10 min. The secondary antibody working solution was incubated at room temperature for 1 h. The membrane was washed with 1×TBST buffer for 3×10 min, and a chromogenic solution was used for exposure and color development.

[1] = tested on: secretion levels of IL-6 in PBMC cells; assay: Inhibition of LPS+IL-1β-induced IL-6 secretion in PBMC (IL-6 ELISA); details: human PBMC, 24 h compound pre-incubation, 20 h stimulation
[2] = tested on: secretion levels of IL-6 in PBMC cells; assay: Inhibition of R848-induced IL-6 secretion in PBMC (IL-6 ELISA); details: human PBMC, 20 h compound pre-incubation, 24 h stimulation
Summary of the method: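 PBMC pre-treated with compounds (top 1 μM, 4-fold dilutions) in RPMI 1640/10% FBS for 20 h at 37 °C, then stimulated with R848 ([…] final) for another 24 h. Supernatant IL-6 by ELISA (OD450, standard curve); IC50 from dose-effect curve fit.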

Row | Compound | DC50 (IRAK4 protein) [nM] | pIC50 [1] | pIC50 [2]
1 | Cc1nn(C2CCC(=O)NC2=O)c2cccc(N3CC4CN(C[C@H]5CC[C@H](n6cc7cc(NC(=O)c8cnn9cccnc89)c(N8CCOCC8)cc7n6)CC5)CC4C3)c12 (some centres unmarked) [TM-57] | 3.12 | 8.06 | 8.46
2 | Cc1nn(C2CCC(=O)NC2=O)c2cncc(N3CCN(C[C@H]4CC[C@H](n5cc6cc(NC(=O)c7cnn8cccnc78)c(N7CCO[C@H](C)C7)cc6n5)CC4)CC3)c12 (some centres unmarked) [TM-109] | 4.67 | 7.41 | –
